We go through one compound from patent US20130005747A1, “METHOD FOR SELECTING A CANCER THERAPY” (Cyclacel Limited, priority 2010, published 2013).

The test system of one test is A-204. In words: Fractional growth, 72 h seliciclib. Format: cell-based, human. The following applies: A-204 (Muscle), 15 μM seliciclib. An excerpt:
(§1) A total of 270 human cancer cell lines from diverse cancer histopathologic types were investigated.

The next test concerns AU565. Put plainly: Fractional growth, 72 h seliciclib. Format: cell-based, human. The following applies: AU565 (Breast), 15 μM seliciclib.
Excerpt: as §1

For another test, the system named is HuH-7. In words: Fractional growth, 72 h seliciclib. Format: cell-based, human. Particulars: HuH-7 (Liver), 15 μM seliciclib.
Excerpt: as §1

For another test, the system named is NCI-H1581. In words: Fractional growth, 72 h seliciclib. Format: cell-based, human. The following applies: NCI-H1581 (Lung: NSCLC), 15 μM seliciclib.
Excerpt: as §1

A further test has as its system NH-6. Put plainly: Fractional growth, 72 h seliciclib. Format: cell-based, human. Particulars: NH-6 (Kidney), 15 μM seliciclib.
Excerpt: as §1

The next test relates to PA-TU-8988S. Put plainly: Fractional growth, 72 h seliciclib. Format: cell-based, human. The following applies: PA-TU-8988S (Pancreas), 15 μM seliciclib.
Excerpt: as §1

In another test the test system is SKG-IIIb. In words: Fractional growth, 72 h seliciclib. Format: cell-based, human. Particulars: SKG-IIIb (Cervix), 15 μM seliciclib.
Excerpt: as §1

The test system of another test is SW 780. In words: Fractional growth, 72 h seliciclib. Format: cell-based, human. The following applies: SW 780 (Bladder), 15 μM seliciclib.
Excerpt: as §1

Another test concerns XPA-4. Put plainly: Fractional growth, 72 h seliciclib. Format: cell-based, human. The following applies: XPA-4 (Pancreas), 15 μM seliciclib.
Excerpt: as §1

Test [1] deals with 270 human cancer cell lines. Put plainly: Pharmacogenomic analysis of cancer cell lines, summary. Format: cell-based. Particulars: over half of investigated lung, pancreatic, head and neck, esophageal, liver, thyroid, ovarian, uterine, and skin cancer cell lines; 72 hours.
Excerpt: as §1

For test [2], the system named is nasopharyngeal cancer (NPC). Particulars: Phase I, patients with nasopharyngeal cancer; cited from earlier work.

`CC[C@H](CO)Nc1nc(NCc2ccccc2)c2ncn(C(C)C)c2n1` [seliciclib, roscovitine]: the “Fractional Growth” value in the test with A-204 is on record as 0.2653; in the test on AU565, 0.4762; in the test with HuH-7, 0.3911; in the test on NCI-H1581, 0.7659; in the test on NH-6 it was 0.5218; with PA-TU-8988S it was 0.5791. In addition, the “Fractional Growth” value was determined as 0.6636 in the test on SKG-IIIb, 0.3743 in the test with SW 780 and 0.3444 in the test on XPA-4. Also, the “growth inhibition compared with vehicle treated cells” value in test [1] is given as “at least 50%”. In test [2], the “copy counts of the EBV virus” value is “concomitant reduction in copy counts of the EBV virus”. Further, the tumor response entry in test [2] was “evidence of tumor shrinkage”.
